# Test results: US10914722B2, “Sensor array and apparatus for simultaneous observation of tissue electrophysiology, contractility, and growth” (Lawrence Livermore National Security, LLC, priority 2017, dated 2021)
# Test system: human induced pluripotent stem cell-derived cardiomyocytes (iPS-CMs)
# Test: simultaneous field potential (MEA), impedance (IDE) and optical recording of cardiac tissue pre-/post-drug exposure and after wash-out
# Assay type: cell-based
# Description: Measurements were repeated once more after washing the culture to flush the blebbistatin from the system. FIGS. 7A-7C show the field potential (left) and corresponding impedance changes (right) prior to exposure to blebbistatin (FIG. 7A), after exposure to blebbistatin (FIG. 7B) and following flushing of blebbistatin from the system (FIG. 7C).
# Prior to compound addition, the tissue beat spontaneously and rhythmically at a rate of 14 bpm, as shown from both the FP profile and impedance profile of FIG. 7A.
# Human iPS-CMs were purchased from Cellular Dynamics International (Madison, Wis.). Cells were stored in liquid nitrogen before use. Prior to cell seeding, device culture chambers were sterilized with 70% ethanol, rinsed with autoclaved water, then incubated overnight with 40 μg/mL fibronectin (Sigma-Aldrich, St Louis, Mo.) at 37° C. Cells were seeded at a density of 120K cells/cm2 and kept in an incubator at 37° C. and 5% CO2. Media was exchanged 4 hrs after seeding, then every 48 hours subsequently.
# The MEA was connected via electrical connector(s), preferably OMNETICS™ connectors to an AlphaLab SnR multi-channel recording system (Alpha Omega, Alpharetta, Ga.) to record voltages as a function of time across all 16 electrodes of the MEA. Offline analysis of temporal differences between the 16 electrodes when voltage spikes occur generates an activation map. The activation map illustrates FP spatial propagation in the cardiac tissue monolayer across the surface area of the device.
# For measuring cardiac contraction, high-speed impedance time recording was performed using a Keysight E4990A Impedance Analyzer (Keysight Technologies Inc., Santa Rosa, Calif.) and controlled using custom LabVIEW software (National Instruments, Austin, Tex.). For each device, impedance was measured at multiple frequencies between 5 kHz and 200 kHz to determine the frequency range that gives the highest signal-to-noise ratio.
# Norepinephrine and blebbistatin were purchased from Sigma-Aldrich (St Louis, Mo., USA). Both drugs were dissolved in 0.1% dimethyl sulfoxide and stored at −20° C. Drugs were diluted to desired concentrations in cell media immediately before use. Prior to drug exposure, pre-drug electrophysiology and contraction data of the cardiac tissues on a device were collected for five minutes. Next, cell media was removed from the chamber on the device, drug was added and device was incubated at 37° C. and 5% CO2 for 15 minutes. Recording was again started with the drug. Afterwards, the drug solution was removed and the culture chamber was rinsed three times with cell media, incubated at 37° C. and 5% CO2 for another 15 minutes before performing drug wash-out measurements.
# [1] = after incubation with 10 μM, FIG. 7B
structure (smiles),measurement,setting,value
Cc1ccc2c(c1)C(=O)C1(O)CCN(c3ccccc3)C1=N2 (stereo not shown) [blebbistatin],action potential pattern (MEA data),[1],not affected
same,"impedance recording (contraction signal, IDE)",[1],flat baseline signal
same,tissue contraction observed under an optical microscope,"after incubation with 10 μM, pre-drug spontaneous beating at 14 bpm, FIG. 7B",static
same,tissue contractility after washing out (impedance peaks and optical observation),"wash-out after 10 μM exposure, FIG. 7C",restored the tissue contractility
